Experiments:
mice = assay: Timing/Peak Procedure operant test (attention, impulsivity); type: in vivo; conditions: 0.1 mg/kg IP, FIG. 1
Source text: The Timing/Peak Procedure test is an operant test in which mice are trained to respond to a food reward at a fixed time interval of 30 sec. Mice learn to increase their responding around the 30 sec time period. This test assesses impulsivity, attention and timing perception. A high peak of responding at the 30 sec interval and narrow spread are signatures of the animal's improved attention and time perception.
In brief, mice were placed in a chamber and trained to lever press for food. After training, animals learn to respond after a fixed interval of 30 sec has elapsed as only this fixed interval response produces a reward. With reinforcement delivery the lever is retracted and an inter-trial-interval commences. Once the animal was trained on the reinforced trials, “peak trials” or unreinforced trials are introduced and intermixed with reinforced trials. During these empty trials, no responses were reinforced and the trial lasts for 120 sec (i.e., the lever is extended but reinforcement is not presented). After the 120 sec elapses, the trial terminated, the lever was retracted and the inter-trial-interval started as before. The animals therefore learned that if after a period of 30 sec, no food has been presented there will be no reinforcement delivery until the lever is retracted and the trial starts again.
To perform well on this task, animals need to learn an association between a response (lever pressing) and the delivery of reinforcement (condensed milk), they need to perceive and remember time, they need to act on the remembered time by responding or by inhibiting a response and finally they need to compare the elapsed time during a trial with their memory for the time for reinforcement. A true cognitive enhancer therefore should decrease responding after reinforcement time, without affecting the peak time, i.e., sharpening the curve and reducing the spread in the response curve. A sharpened curve is indicative of heightened attentional processes.

rats = assay: Radial arm maze, scopolamine-induced working memory deficit; type: in vivo; conditions: eltoprazine 0.3 mg/kg PO + scopolamine 0.5 mg/kg IP, ANOVA, FIG. 2
Protocol: Several mazes, such as the radial arm maze (RAM) have been adapted to assess working memory in rodents. The RAM consists of eight long runways radiating out in a circle from a central compartment. In the RAM rats learn to retrieve food rewards from all or a sub-set of the arms. Working memory is assessed by measuring entries into previously baited arms within a given trial. […] Hippocampal lesions produce deficits both in adults and in the neonatal hippocampal lesion model of schizophrenia.
For training, food deprived rats were placed in an enclosed cylinder in the center of the maze for 20 s, prior to being allowed to explore the maze by removing the cylinder. Each radial arm is baited with a food reward. Animals were given a maximum of 5 minutes to retrieve all food rewards. This training continued once daily for three weeks until animals met the performance criteria for successful acquisition of the task.
Four parameters were recorded to assess the performance of the rat: (1) the number of errors, which is defined as entering an arm that had already been entered, (2) the number of consecutive entries into un-visited arms before the first error occurred (entries to repeat), (3) latency to complete the task, and (4) the total number of arm entries before all food in the eight arms is collected or the maximum session duration is reached. […]

Male Wistar rats = assay: Novel Object Recognition Test (NOR); type: in vivo; conditions: 0.3, 1, 3, and 10 mg/kg, 1 h prior to training, 24 hours post training, FIG. 3
Source text: In addition to working memory deficits, the initiative, “Measurement and Treatment Research to Improve Cognition in Schizophrenia” (MATRICS) has identified other domains of learning and memory in which schizophrenia patients show impaired visual learning and memory. There are several visual learning and memory tasks appropriate for study in rodents (Powell, S. B. and M. A. Geyer, Overview of animal models of schizophrenia. Curr Protoc Neurosci, 2007. Chapter 9: p. Unit 9 24). […]
Male Wistar rats were assessed for cognitive ability in a test apparatus comprising an open-field arena placed in a sound-attenuated room under dimmed lighting. […] All tests were video scored by an observer blind to treatment. […] Each rat was placed in the arena facing the same direction at the same position, and the time spent actively exploring the objects during a 10-minute test period was recorded. […] After 24 hours, each rat was placed again in the test arena for 10 minutes in the presence of one of the familiar objects and a novel object, and the time spent exploring both objects was recorded. […] The percent time spent exploring the novel object was recorded.

5-HT1D receptor = conditions: compared with serotonin; Schipper et al.; cited from earlier work
5-HT2C receptors = target: T1, 5-HT2C receptors (Homo sapiens, UniProt P28335); conditions: relative to 5-HT1A, 5-HT1B; Schipper et al.; cited from earlier work
T1 sequence (P28335 33-458): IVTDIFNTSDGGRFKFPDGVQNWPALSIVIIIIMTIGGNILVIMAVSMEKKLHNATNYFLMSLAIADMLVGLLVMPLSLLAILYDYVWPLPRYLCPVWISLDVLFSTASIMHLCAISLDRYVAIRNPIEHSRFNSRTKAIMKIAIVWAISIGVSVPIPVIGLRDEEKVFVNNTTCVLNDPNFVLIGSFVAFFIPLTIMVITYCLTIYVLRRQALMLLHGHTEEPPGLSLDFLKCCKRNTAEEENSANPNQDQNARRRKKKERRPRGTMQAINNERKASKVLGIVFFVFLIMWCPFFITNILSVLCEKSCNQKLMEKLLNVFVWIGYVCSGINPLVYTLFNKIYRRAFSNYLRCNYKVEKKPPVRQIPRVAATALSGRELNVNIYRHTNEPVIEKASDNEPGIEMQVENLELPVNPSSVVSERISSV

**Q.** What does the source list for c1cc2c(c(N3CCNCC3)c1)OCCO2 [Eltoprazine, 1-(2,3-dihydro-1,4-benzodioxanyl-5-yl) piperazine]?
**A.** Peak of responding (mice): sharpens the peak of responding; Spread of the response curve (mice): significantly reduces the spread; Peak of responding (mice; listed as eltoprazine): sharpened the peak of responding; Effect following chronic administration (mice; chronic administration): no loss of effect; Effect on scopolamine-induced decrease of entries to repeat (rats): attenuated; Novel object recognition (NOR) memory vs. vehicle-treated controls (Male Wistar rats): significantly improved; Binding affinity for the 5-HT1D receptor (5-HT1D receptor): relatively low affinity; Binding affinity for 5-HT2C receptors (5-HT2C receptors): somewhat lower affinity

Reference: patent US20180228799A1, “Treatment for Neurological and Mental Disorders” (PSYCHOGENICS, INC., priority 2008, published 2018)
